Measurements: EP2533787B1, “USE OF ISORHAMNETIN TRIGLYCOSIDES” (Dr. Willmar Schwabe GmbH & Co. KG, priority 2010, dated 2011)
Marks after values point to notes of the source that are not given here.

Assays:
Mäuse = assay: Light/dark box test ("Hell-Dunkel-Box"), frequency of compartment changes; format: in vivo; details: for Anzahl der Feldwechsel im Vergleich zur Vehikel-Kontrolle / Wechselhäufigkeit in der "Hell-Dunkel-Box": single dose; for Anzahl der Feldwechsel im Vergleich zur Vehikel-Kontrolle: tested after 60 min, observed 3 min; for Erkundungsverhalten ("exploratory behavior"): oral application in mice; for Erkundungsverhalten ("exploratory behavior") / Wechselhäufigkeit in der "Hell-Dunkel-Box": result in words; for Wechselhäufigkeit in der "Hell-Dunkel-Box": oral
Excerpt: Die aktivitätssteigernde Wirkung der Isorhamnetintriglycoside 2, 3 und 4 wurde an Versuchstieren im sogenannten "Hell-Dunkel-Box" System getestet.
Das Prinzip des verwendeten Testsystems beruht darauf, dass Mäuse einem Verhaltensparadigma ausgesetzt werden, das zwei gegensätzliche Verhaltensmuster aktiviert. Die Box besteht aus zwei Kompartimenten von denen ein kleinerer dunkler Teil von einem hellen und größeren Teil durch eine Wand getrennt wird. In der Mitte der Wand befindet sich eine kleine Öffnung, die es dem Versuchstier ermöglicht zwischen den beiden Kompartimenten zu wechseln. Der Versuch beginnt mit dem Einsetzen der Maus in das helle Feld. Das angeborene Dunkelpräferenzverhalten führt dazu, dass die Tiere nach einer kurzen Latenzzeit in das dunkle -sichere Kompartiment wechseln. Nach kurzer Zeit führt aber das ebenso stark ausgeprägte Neugierverhalten (Erkundungsverhalten) dazu, dass die Mäuse wieder in das helle Kompartiment wechseln. Somit stehen zwei angeborene Verhaltensweisen, nämlich die Dunkelpräferenz (Vermutlich als Schutz vor Beutegreifern) und das Erkundungsverhalten (wichtig für Nahrungssuche, Partnersuche) im Konflikt, die für eine Dauer von 3 Minuten aufgezeichnet werden. Arzneimittel, die beruhigende pharmakologische Effekte haben, führen zu einer Verminderung der Wechselhäufigkeit zwischen den Kompartimenten, während Arzneimittel mit stimulierenden Aktivitäten die Wechselhäufigkeit steigern. Die Wechselhäufigkeit ist somit ein Index für aktivitätsgesteuertes Erkundungsverhalten als Zeichen einer Habituation (M. Bourin, and M. Hascoet, "The mouse light/dark box test", Eur. J. Pharmacol. 463 (2003) 55 - 65). Die Versuchsanordnung betrachtet somit Verhaltensparameter, die geeignet sind das Maß an Aktivität zu messen und zu bewerten.
Um die aktivitätssteigernden Effekte der Isorhamnetintriglycoside 2, 3 und 4 zu testen wurden Mäuse einmalig mit verschieden hohen Dosierungen der Flavone behandelt. Zum Vergleich wurden einige Tiere entweder mit dem sedierenden Benzodiazepin Lorazepam oder mit dem aktivitätssteigernden Präparat Methamphetamin oder mit einer wirkungslosen Kontrolllösung behandelt. Nach 60 Minuten wurden die Tiere in das helle Kompartiment der "Hell-Dunkel-Box" gesetzt und über einen Zeitraum von 3 Minuten beobachtet. Als Maß der Aktivität wurde die Häufigkeit der Feldwechsel gemessen. […] Tabelle 2: Wirkung der Isorhamnetintriglycoside 2 und 3 im Vergleich zum Anxiolytikum Lorazepam. Gemessen wird die Anzahl der Feldwechsel im Vergleich zur Vehikel-Kontrolle.

[1] = tested on: Hippocampus Schnittpräparaten; assay: Long-term potentiation (LTP) in hippocampal slice preparations, POP spikes; format: cell-based, Wistar-Ratten; details: result in words; for Langzeitpotenzierung: rat brain slice preparations, compared with buffer solution; for Reizantwort nach LTP-Stimulation: size of POP spikes after repeated LTP induction, compared with solvent
Excerpt: Um den Einfluss der Isorhamnetintriglycoside 2 und 4 auf mentale Funktionen zu testen wurde die Induktion der sogenannten Langzeitpotenzierung (LTP) verwendet. In Hirnschnitt-Präparaten von Wirbeltieren dient LTP als zelluläres Modell für Lernvorgänge, vor allem im Arbeitsgedächtnis (T. V. P. Bliss, and G. L. Collingridge, "A synaptic model of memory: Long-term potentiation in the hippocampus", Nature 361 (1993) 31 - 39). Durch wiederholte Reizung von Neuronen wird eine langandauernde Verstärkung der synaptischen Übertragung induziert, die durch eine Stabilisierung oder Aktivierung sogenannter ruhender Synapsen ("silent synapses) zu einer Neubildung von Verschaltungsmustern zustande kommt (Lernen). Die am besten untersuchte Region des Gehirns für LTP Messungen ist der Hippocampus, der für die Verarbeitung von Lernvorgängen eine zentrale Rolle spielt, allerdings findet LTP auch in anderen Hirnregionen statt (G. A. Kerchner, and R.A. Nicoll, "Silent synapses and the emergence of a postsynaptic mechanism for LTP", Nat. Rev. Neurosci. 9 (2008) 813 - 825). Bei Ratten und anderen Nagern ist die Langzeitpotenzierung insbesondere mit der Ausbildung des räumlichen Lernens assoziiert (J. R. Whitlock, A. J. Heynen, M. G. Shuler, and M. F. Bear, "Learning induced long-term potentiation in the hippocampus", Science 313 (2006) 1093 - 1097).
Die Experimente wurden an Hippocampus Schnittpräparaten von 8-12 Wochen alten weiblichen Wistar-Ratten durchgeführt. Die Hirnschnitte werden bei 35°C in einer Messkammer gehalten und mit einer Nährlösung perfundiert. Glasmikroelektroden werden im dendritischen Bereich des Stratum pyramidale (CA1) platziert um "Population Spikes" (POP-Spikes) zu registrieren. Die Schaffer-Kollateralen werden mit bipolaren Reizelektroden aus Platin-Draht stimuliert und die resultierenden Aktionspotentiale (POP Spikes) gemessen. Der eigentliche Versuch beginnt nach einer Äquilibrierungszeit von 60 Minuten in welcher die Hirnschnitte nicht manipuliert werden. Anschließend werden die Elektroden platziert und begonnen die Schaffer Kollateralen mit steigender Stromstärke zu stimulieren. Nach Erreichen der maximalen Reizantwort wird die Stromstärke so reduziert, dass nur noch 50% der maximal möglichen Reizstärke erreicht werden. Dadurch kann im späteren Versuch überprüft werden ob eine Verstärkung der Reizantwort möglich ist. Anschließend wird alle 10 Sekunden mit der submaximalen Reizstärke stimuliert und die POP Spikes registriert. Die erste LTP-Induktion beginnt mit einer repetitiven Reizung (100 Hz für 1 Sekunde). Der 1. Stimulation folgt die erneute Einzelstimulation (alle 10 Sekunden ein submaximaler Reiz) für zehn Minuten. Diese erste Stimulation dient der Überprüfung, ob der Hirnschnitt eine Reizantwort auf die LTP-Induktion zeigt. […]

O=C1Nc2ccc(Cl)cc2C(c2ccccc2Cl)=NC1O (centres unmarked) [Lorazepam]
Anzahl der Feldwechsel im Vergleich zur Vehikel-Kontrolle (Mäuse; 0,3 mg/kg po): -46 % der Kontrolle

CNC(C)Cc1ccccc1 (centres unmarked) [Methamphetamin]
Wechsel Anzahl (Mäuse; 0,3 mg/kg peroral): 7,5 ± 2,1 | Wechsel Prozent der Kontrolle (Mäuse; 0,3 mg/kg peroral): +7% | Wechsel Anzahl (Mäuse; 1,0 mg/kg peroral): 10,6 ± 1,6 | Wechsel Prozent der Kontrolle (Mäuse; 1,0 mg/kg peroral): +51% | Wechsel Anzahl (Mäuse; 3,0 mg/kg peroral): 10,9 ± 3,3 | Wechsel Prozent der Kontrolle (Mäuse; 3,0 mg/kg peroral): +56% | Wechsel Anzahl (Mäuse; 10,0 mg/kg peroral): 0,6 ± 1,2 | Wechsel Prozent der Kontrolle (Mäuse; 10,0 mg/kg peroral): -91%

COc1cc(-c2oc3cc(O)cc(O)c3c(=O)c2O[C@@H]2O[C@H](CO[C@@H]3O[C@@H](C)[C@H](O)[C@@H](O)[C@H]3O)[C@H](O)[C@H](O)[C@H]2O[C@@H]2OC[C@@H](O)[C@H](O)[C@H]2O)ccc1O [Verbindung 2, 3-[(O-6-Deoxy-α-L-mannopyranosyl-(1→6)-O-[ß-D-xylopyranosyl-(1→2)]-ß-D-galactopyranosyl)oxy]-5,7-dihydroxy-2-(4-hydroxy-3-methoxy-phenyl)-4H-1-benzopyran-4-on]
Langzeitpotenzierung [1]: deutlich gesteigert | Reizantwort nach LTP-Stimulation [1]: deutliche Steigerung der Reizantwort | Anzahl der Feldwechsel im Vergleich zur Vehikel-Kontrolle (Mäuse; 10 mg/kg po): +100 # % der Kontrolle | Anzahl der Feldwechsel im Vergleich zur Vehikel-Kontrolle (Mäuse; 30 mg/kg po): +38 % der Kontrolle | Erkundungsverhalten ("exploratory behavior") (Mäuse): deutlichen, dosisabhängigen und statistisch signifikantem Ansteigen des Erkundungsverhaltens | Wechselhäufigkeit in der "Hell-Dunkel-Box" (Mäuse; 30 mg/kg): geht dieser Effekt verloren | Wechselhäufigkeit in der "Hell-Dunkel-Box" (Mäuse; 3 und 10 mg/kg): deutlichen, signifikanten Steigerung der Wechselhäufigkeit

COc1cc(-c2oc3cc(O)cc(O)c3c(=O)c2O[C@@H]2O[C@H](CO[C@@H]3O[C@@H](C)[C@H](O[C@@H]4O[C@@H](C)[C@H](O)[C@@H](O)[C@H]4O)[C@@H](O)[C@H]3O)[C@@H](O)[C@H](O)[C@H]2O)ccc1O [Verbindung 3, 3-[(O-6-Deoxy-α-L-mannopyranosyl-(1→4)-O-6-deoxy-α-L-mannopyranosyl-(1→6)-ß-D-glucopyranosyl)oxy]-5,7-dihydroxy-2-(4-hydroxy-3-methoxyphenyl)-4H-1-benzopyran-4-on]
Anzahl der Feldwechsel im Vergleich zur Vehikel-Kontrolle (Mäuse; 3 mg/kg po): +15 % der Kontrolle | Erkundungsverhalten ("exploratory behavior") (Mäuse): deutlichen, dosisabhängigen und statistisch signifikantem Ansteigen des Erkundungsverhaltens

COc1cc(-c2oc3cc(O)cc(O)c3c(=O)c2O[C@@H]2O[C@H](CO[C@@H]3O[C@@H](C)[C@H](O)[C@@H](O)[C@H]3O)[C@@H](O)[C@H](O)[C@H]2O[C@@H]2OC[C@@H](O)[C@H](O)[C@H]2O)ccc1O [Verbindung 4, 3-[(O-6-Deoxy-α-L-mannopyranosyl-(1→6)-O-[ß-D-xylopyranosyl-(1→2)]-ß-D-glucopyranosyl)oxy]-5,7-dihydroxy-2-(4-hydroxy-3-methoxyphenyl)-4H-1-benzopyran-4-on]
Langzeitpotenzierung [1]: deutlich gesteigert | Reizantwort nach LTP-Stimulation [1]: deutliche Steigerung der Reizantwort
